Results reported in ChEMBL document CHEMBL3421604, “Treating pain with somatostatin receptor subtype 4 agonists” (ACS Med Chem Lett, 2015).

Legend:
[1] = Metabolic stability in pooled human liver microsomes assessed as half life at 0.1 uM at 37 degC in presence of NADPH by LC-MS/MS method; type: ADME
[2] = target: Somatostatin receptor type 2 (Homo sapiens, UniProt P30874); experiment: Displacement of [3-125l-Tyr]-somatostatin-(1 -14) from human recombinant somatostatin 2 receptor expressed in CHO cell membranes incubated for 180 mins
[3] = target: Somatostatin receptor type 3 (Homo sapiens, UniProt P32745); experiment: Displacement of [3-125l-Tyr]-somatostatin-(1 -14) from human recombinant somatostatin 3 receptor expressed in CHO cell membranes incubated for 180 mins
[4] = target: Somatostatin receptor type 5 (Homo sapiens, UniProt P35346); experiment: Displacement of [3-125l-Tyr]-somatostatin-(1 -14) from human recombinant somatostatin 5 receptor expressed in CHO cell membranes incubated for 180 mins
[5] = target: Somatostatin receptor type 1 (Homo sapiens, UniProt P30872); experiment: Displacement of [3-125l-Tyr]-somatostatin-(1 -14) from human recombinant somatostatin 1 receptor expressed in CHO cell membranes incubated for 180 mins
Sequence of Somatostatin receptor type 1 (P30872 whole entry): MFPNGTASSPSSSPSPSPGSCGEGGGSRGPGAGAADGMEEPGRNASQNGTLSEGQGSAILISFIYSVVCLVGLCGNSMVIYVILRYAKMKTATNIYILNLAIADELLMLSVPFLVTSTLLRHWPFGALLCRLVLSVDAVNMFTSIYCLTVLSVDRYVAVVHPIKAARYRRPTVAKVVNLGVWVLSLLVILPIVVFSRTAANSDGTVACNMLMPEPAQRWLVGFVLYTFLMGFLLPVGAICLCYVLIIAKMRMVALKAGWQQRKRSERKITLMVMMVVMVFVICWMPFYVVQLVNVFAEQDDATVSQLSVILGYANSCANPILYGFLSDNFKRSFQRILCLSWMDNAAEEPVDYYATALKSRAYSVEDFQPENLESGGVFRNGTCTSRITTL

Sequence of Somatostatin receptor type 2 (P30874 whole entry): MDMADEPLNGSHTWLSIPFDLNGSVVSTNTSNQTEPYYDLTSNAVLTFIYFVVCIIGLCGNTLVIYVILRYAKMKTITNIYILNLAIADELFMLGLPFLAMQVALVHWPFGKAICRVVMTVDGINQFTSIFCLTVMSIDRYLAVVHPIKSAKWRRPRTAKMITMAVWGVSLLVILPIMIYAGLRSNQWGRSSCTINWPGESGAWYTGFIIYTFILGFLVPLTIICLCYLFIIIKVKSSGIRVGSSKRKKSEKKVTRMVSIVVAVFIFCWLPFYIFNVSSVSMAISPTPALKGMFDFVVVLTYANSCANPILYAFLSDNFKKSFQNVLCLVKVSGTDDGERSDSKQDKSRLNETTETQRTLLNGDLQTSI
Sequence of Somatostatin receptor type 5 (P35346 whole entry): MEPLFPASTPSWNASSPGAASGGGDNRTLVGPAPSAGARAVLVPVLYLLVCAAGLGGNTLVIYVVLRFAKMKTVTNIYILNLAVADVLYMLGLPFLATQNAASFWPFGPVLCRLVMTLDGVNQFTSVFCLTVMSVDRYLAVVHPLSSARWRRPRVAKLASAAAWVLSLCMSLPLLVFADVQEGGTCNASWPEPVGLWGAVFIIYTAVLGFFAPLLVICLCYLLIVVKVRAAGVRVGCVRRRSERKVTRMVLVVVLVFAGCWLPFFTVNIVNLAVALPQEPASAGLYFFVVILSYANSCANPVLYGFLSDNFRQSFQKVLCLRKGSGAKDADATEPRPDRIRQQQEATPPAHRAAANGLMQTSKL
Sequence of Somatostatin receptor type 3 (P32745 whole entry): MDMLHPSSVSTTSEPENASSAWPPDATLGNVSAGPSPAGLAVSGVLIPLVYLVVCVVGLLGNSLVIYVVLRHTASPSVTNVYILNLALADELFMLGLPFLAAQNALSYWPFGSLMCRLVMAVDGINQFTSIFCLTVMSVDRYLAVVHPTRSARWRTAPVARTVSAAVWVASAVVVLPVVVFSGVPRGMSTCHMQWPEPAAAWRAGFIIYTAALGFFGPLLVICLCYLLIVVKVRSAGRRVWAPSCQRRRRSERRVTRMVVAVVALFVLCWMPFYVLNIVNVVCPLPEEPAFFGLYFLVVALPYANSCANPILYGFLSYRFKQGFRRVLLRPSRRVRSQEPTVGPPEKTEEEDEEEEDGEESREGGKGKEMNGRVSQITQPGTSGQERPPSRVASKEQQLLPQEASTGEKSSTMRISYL

| Structure (SMILES) | half-life at 0.1 µM [1] [h] | Ki [2] [µM] | Ki [3] [µM] | Ki [4] [µM] | Ki [5] [µM] |
| --- | --- | --- | --- | --- | --- |
| Cn1nc(C(C)(C)NC(=O)[C@H]2[C@@H]3CNC[C@@H]32)c2ccccc21 | > 2.17 | > 9.6 | > 8.62 | > 9.86 | – |
| Cc1nc(C(C)(C)NC(=O)[C@H]2[C@@H]3CNC[C@@H]32)c2ccccc2n1 | > 2.17 | > 9.63 | > 8.71 | > 9.86 | – |
| Cc1cc2ccccc2c(C(C)(C)NC(=O)[C@H]2[C@@H]3CNC[C@@H]32)n1 | > 2.17 | > 9.59 | – | > 9.85 | – |
| CC(C)(NC(=O)[C@H]1[C@@H]2CNC[C@@H]21)c1noc2c(F)cccc12 | > 2.17 | > 9.6 | > 8.6 | > 9.85 | > 9.09 |
